Here are results for 4 compounds from PMC3344384 (Chemistry & biology, 2011).

What is called IC50 is the concentration needed to halve the response being measured.

A value given as a limit tells only on which side of the number the result lay.

The target in one assay is T1, caspase-3 (Homo sapiens, UniProt P42574).
T1 sequence (P42574 29-175 limits assumed): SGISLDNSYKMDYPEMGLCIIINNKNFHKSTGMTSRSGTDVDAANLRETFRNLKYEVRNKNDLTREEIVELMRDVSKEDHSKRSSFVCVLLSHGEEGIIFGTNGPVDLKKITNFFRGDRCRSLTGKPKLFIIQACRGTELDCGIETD
T1 sequence (P42574 176-277 limits assumed): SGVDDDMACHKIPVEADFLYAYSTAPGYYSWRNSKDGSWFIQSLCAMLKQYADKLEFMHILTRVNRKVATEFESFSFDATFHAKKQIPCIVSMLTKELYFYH
Description: cysteine protease selectivity, caspase-3. In kind it is biochemical.

The next assay addresses T2, USP8 (Homo sapiens, UniProt P40818).
T2 sequence (P40818 1-1118): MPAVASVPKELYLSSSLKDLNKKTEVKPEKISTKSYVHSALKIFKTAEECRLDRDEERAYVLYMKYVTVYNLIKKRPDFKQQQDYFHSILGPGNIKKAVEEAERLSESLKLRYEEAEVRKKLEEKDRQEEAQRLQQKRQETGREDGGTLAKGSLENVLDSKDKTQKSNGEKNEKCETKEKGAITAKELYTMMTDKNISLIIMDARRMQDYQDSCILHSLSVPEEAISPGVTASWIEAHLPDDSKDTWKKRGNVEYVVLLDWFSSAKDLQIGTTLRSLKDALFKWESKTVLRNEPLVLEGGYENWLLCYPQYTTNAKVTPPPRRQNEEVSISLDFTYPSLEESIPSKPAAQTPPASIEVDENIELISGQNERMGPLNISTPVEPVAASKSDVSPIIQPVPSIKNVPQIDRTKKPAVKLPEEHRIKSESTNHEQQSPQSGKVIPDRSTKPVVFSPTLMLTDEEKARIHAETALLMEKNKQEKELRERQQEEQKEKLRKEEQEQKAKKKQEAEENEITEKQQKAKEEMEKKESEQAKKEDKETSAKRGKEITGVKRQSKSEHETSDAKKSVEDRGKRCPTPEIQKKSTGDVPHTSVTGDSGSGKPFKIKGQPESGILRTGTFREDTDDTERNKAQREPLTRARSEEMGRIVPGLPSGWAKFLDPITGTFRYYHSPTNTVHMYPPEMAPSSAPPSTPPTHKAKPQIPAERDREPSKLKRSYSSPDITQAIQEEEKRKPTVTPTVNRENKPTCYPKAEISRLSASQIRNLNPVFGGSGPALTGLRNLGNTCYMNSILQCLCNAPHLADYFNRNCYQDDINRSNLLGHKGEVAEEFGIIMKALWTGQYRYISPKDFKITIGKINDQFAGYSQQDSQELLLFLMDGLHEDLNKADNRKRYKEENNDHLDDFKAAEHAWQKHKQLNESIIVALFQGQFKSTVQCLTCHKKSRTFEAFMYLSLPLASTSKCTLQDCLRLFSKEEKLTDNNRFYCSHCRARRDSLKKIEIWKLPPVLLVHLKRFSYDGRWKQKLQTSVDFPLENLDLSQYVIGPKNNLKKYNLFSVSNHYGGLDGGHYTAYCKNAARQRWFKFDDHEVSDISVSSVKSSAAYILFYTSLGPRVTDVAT
The assay is described as follows: K63-linked diubiquitin cleavage assay, USP8. The settings on record: for IC50 USP8: K63-linked diubiquitin substrate, NI = no significant inhibition at 114 μM.

The target in a further assay is T3, caspase-1 (Homo sapiens, UniProt P29466).
T3 sequence (P29466 120-297 limits assumed): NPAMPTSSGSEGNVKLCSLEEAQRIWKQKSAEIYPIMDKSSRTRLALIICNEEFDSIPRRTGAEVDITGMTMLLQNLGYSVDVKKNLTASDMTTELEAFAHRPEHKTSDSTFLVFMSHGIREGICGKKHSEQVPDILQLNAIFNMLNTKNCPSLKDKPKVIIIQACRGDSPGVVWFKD
T3 sequence (P29466 317-404 limits assumed): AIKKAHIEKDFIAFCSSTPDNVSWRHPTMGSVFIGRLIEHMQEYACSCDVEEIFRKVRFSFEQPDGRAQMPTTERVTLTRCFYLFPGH
The assay is described as follows: cysteine protease selectivity, caspase-1. In kind it is biochemical.

The target of another assay is USP7 (Homo sapiens, UniProt Q93009). Description: K63-linked diubiquitin cleavage assay, USP7. The settings on record: for IC50 for USP7, fold higher than that for USP1/UAF1: K63-linked diubiquitin substrate.
The target in another assay is T4, papain (Carica papaya, UniProt P00784).
T4 sequence (P00784 134-345): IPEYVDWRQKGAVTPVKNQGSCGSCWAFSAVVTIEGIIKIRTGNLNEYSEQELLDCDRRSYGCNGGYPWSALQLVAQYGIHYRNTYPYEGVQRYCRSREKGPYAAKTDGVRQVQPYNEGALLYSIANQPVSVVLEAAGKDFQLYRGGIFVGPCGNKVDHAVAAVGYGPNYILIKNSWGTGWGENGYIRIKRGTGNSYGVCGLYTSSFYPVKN
The assay is described as follows: cysteine protease selectivity, papain. Type of assay: biochemical.

A further assay has as its target T5, UCH-L3 (Homo sapiens, UniProt P15374).
T5 sequence (P15374 1-230): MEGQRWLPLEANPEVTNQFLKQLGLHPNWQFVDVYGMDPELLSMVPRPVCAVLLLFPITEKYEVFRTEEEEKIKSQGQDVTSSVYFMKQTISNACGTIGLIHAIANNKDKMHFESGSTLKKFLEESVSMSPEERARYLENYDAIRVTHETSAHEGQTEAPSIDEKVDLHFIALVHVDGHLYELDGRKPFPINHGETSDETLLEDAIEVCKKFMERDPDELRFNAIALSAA
The assay is described as follows: Ub-Rho assay, UCH-L3. In kind it is biochemical.

Another assay has as its target USP1/UAF1 (Homo sapiens, UniProt O94782+Q8TAF3). Description: reversibility of inhibition by rapid dilution. The settings on record: incubation at 10 times IC50, 100-fold rapid dilution.

Chain of USP1/UAF1 (O94782 whole entry): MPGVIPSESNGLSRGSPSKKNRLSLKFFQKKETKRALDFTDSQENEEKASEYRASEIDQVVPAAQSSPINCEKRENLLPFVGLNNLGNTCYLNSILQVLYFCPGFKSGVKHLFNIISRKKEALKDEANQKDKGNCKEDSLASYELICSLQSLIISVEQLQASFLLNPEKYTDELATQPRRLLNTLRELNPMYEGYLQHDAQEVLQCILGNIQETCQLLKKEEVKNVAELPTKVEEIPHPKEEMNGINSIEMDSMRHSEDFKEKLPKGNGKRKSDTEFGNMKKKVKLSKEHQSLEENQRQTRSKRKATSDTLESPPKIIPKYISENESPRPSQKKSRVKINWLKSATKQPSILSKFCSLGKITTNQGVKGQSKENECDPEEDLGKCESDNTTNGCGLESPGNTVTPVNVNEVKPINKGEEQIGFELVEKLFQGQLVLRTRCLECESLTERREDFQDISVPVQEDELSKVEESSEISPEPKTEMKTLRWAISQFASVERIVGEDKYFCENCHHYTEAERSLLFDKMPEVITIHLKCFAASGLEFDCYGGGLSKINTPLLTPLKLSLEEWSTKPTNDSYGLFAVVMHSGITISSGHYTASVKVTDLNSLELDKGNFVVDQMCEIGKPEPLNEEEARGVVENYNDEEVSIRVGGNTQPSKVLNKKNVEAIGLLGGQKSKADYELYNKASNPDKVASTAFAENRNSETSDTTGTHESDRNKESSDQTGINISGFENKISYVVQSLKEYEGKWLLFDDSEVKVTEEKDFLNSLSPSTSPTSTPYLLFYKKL
Chain of USP1/UAF1 (Q8TAF3 whole entry): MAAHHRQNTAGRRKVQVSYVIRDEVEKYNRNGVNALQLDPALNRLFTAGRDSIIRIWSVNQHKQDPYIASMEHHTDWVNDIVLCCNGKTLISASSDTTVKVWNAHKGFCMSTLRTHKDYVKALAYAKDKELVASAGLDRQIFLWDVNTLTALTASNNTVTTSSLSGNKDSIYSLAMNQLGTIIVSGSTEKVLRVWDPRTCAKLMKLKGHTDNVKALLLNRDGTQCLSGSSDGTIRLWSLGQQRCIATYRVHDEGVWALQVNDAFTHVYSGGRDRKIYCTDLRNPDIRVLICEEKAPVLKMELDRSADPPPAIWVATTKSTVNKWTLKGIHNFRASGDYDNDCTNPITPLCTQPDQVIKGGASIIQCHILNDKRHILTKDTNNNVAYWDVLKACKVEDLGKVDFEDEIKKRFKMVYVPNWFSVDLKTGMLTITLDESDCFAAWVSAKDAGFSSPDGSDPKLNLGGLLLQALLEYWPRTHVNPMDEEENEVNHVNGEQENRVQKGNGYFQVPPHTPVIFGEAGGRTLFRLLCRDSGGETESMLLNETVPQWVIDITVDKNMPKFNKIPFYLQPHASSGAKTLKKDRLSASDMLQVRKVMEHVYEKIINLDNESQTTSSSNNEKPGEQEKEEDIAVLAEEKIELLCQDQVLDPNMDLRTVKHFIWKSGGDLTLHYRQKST
Chain of USP7 (Q93009 whole entry): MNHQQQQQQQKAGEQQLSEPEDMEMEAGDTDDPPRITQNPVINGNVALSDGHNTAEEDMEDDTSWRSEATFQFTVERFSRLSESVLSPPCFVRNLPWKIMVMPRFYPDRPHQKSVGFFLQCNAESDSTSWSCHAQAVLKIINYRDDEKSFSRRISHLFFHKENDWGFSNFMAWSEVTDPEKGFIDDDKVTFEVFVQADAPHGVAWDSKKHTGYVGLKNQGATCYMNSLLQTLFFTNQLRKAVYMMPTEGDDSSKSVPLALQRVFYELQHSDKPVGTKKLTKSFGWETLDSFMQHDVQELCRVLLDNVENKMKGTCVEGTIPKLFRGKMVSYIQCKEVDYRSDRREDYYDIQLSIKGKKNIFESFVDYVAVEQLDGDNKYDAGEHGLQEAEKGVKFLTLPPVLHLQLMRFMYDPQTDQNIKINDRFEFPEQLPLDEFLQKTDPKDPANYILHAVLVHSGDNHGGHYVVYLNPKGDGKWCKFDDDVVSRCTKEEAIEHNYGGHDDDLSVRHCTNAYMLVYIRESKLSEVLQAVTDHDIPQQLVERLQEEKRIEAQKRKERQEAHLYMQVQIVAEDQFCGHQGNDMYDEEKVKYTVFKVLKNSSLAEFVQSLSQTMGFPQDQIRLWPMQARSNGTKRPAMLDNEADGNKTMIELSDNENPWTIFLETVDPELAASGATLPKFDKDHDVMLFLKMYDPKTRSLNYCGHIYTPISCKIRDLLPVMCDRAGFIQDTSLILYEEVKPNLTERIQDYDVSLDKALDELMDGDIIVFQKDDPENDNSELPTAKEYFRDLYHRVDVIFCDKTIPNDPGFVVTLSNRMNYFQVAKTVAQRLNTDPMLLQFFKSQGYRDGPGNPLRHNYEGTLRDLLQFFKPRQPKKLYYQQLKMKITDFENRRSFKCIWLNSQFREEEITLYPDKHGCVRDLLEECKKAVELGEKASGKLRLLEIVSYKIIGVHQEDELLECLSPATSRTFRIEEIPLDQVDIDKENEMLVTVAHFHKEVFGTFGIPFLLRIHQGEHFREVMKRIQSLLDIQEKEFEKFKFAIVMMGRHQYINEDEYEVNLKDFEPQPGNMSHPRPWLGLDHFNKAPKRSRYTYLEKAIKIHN

Turning to `OCCN1CCN(CCC=C2c3ccccc3Sc3ccc(C(F)(F)F)cc32)CC1` [Flupenthixol, flupenthixol], the IC50 is over 250 µM against caspase-3; over 114 µM against USP8; over 250 µM on caspase-1; 13 ± 1 µM at USP7; over 250 µM on papain; over 500 µM on UCH-L3. Further, the reversibility of inhibition result on USP1/UAF1 is on record as “largely reversible inhibitors”.

With `O=c1[nH]c2ccccc2n1C1CCN(CCCC(c2ccc(F)cc2)c2ccc(F)cc2)CC1` [Pimozide, pimozide], the IC50 was over 250 µM on caspase-3; over 250 µM at caspase-1; 47 ± 1 µM on USP7; over 250 µM against papain; over 500 µM against UCH-L3. Further, the “IC50 USP8” value against USP8 is listed as “No inhibition”. The “IC50 for USP7, fold higher than that for USP1/UAF1” value against USP7 was determined as 24 fold. Moreover, at USP1/UAF1, the reversibility of inhibition result is recorded as “largely reversible inhibitors”.

For the compound `CC(C)(Sc1ccc(CCN(CCCCC2CCCCC2)C(=O)NC2CCCCC2)cc1)C(=O)O` [GW7647], the IC50 against caspase-3 is over 250 µM; against caspase-1, 42 µM; against USP7, 44 ± 2 µM; against papain, about 130 µM; against UCH-L3 it was over 200 µM. Also, on USP8, the “IC50 USP8” value is given as “did not inhibit”. Also, the “IC50 for USP7, fold higher than that for USP1/UAF1” value on USP7 was found to be 9 fold. For the same compound, at USP1/UAF1, the reversibility of inhibition entry is given as “largely reversible inhibitors”.

Regarding `CN1CCN(CCCN2c3ccccc3Sc3ccc(C(F)(F)F)cc32)CC1` [Trifluoperazine, trifluoperazine], the IC50 at caspase-3 is over 250 µM; on caspase-1, over 250 µM; against USP7 it was 9 ± 1 µM; against papain it was about 130 µM; against UCH-L3 it was over 500 µM. In addition, at USP1/UAF1, the reversibility of inhibition entry is “largely reversible inhibitors”.
